Consider one substance from patent publication US12653899B2, “Multi-targeted, tunable, sustained delivery of payloads to charged avascular tissues” (Massachusetts Institute of Technology, priority 2019, dated 2026).

The test system of test [1] is human ankle cartilage explants. Put plainly: Cumulative sGAG loss and final explant sGAG content (DMMB), human ankle cartilage dose response. It counts as cell-based. To be noted: continuous free IGF-1; any of the three time points. As for the experimental part: Since each fusion protein had one IGF-1 domain, equivalent doses (39.2 nM) of these were tested. In addition to this, 500 nM, 1 μM and 2 μM doses of fusion proteins were also tested. In all cases, only a single dose of the fusion proteins was added at the start of the experiment, and media changes were carried out without fusion proteins once every 2 to 3 days thereafter. In contrast, continuous doses of free IGF-1 were used for the positive control. An untreated control group was also included in the experiments. Experiments were terminated at 3-day, 7-day and 15-day time points. Outcome measures included the biosynthesis rate of sulfated glycosaminoglycans (sGAG), explant metabolic rate, sGAG loss to the culture medium and the explant sGAG content at the end of the experiment.
The metabolic rate of cartilage explants was measured using the Alamar Blue assay (ThermoFisher). […] At the end of the incubation period, the absorbance of the medium at 570 nm and 600 nm was measured using a microplate reader (Synergy H1 Hybrid Multi-Mode Microplate Reader, BioTek). These readings were used to calculate the percentage reduction of Alamar Blue, which is directly proportional to the explant metabolic rate. […] Following this, the weight-normalized readings for the treatment groups were normalized by the weight-normalized mean value for the untreated controls. […]

The test system of test [2] is human ankle cartilage explants treated with IL-1β. Put plainly: IL-1β cytokine challenge model, sGAG biosynthesis rate in human ankle cartilage explants. It counts as cell-based. To be noted: continuous 39.2 nM IGF-1; 10 ng/ml mouse IL-1β; FIG. 20.

“Also recorded” adds a separate entry of the source.

For “IGF-1: free recombinant human IGF-1 (PeproTech), pro-anabolic growth factor used as the positive control”, the “final explant GAG content or cumulative GAG loss percent compared to the untreated control” value in test [1] is “did not have any change”. The “rescue of the biosynthesis loss caused by IL-1” value in test [2] is listed as “rescued; also recorded: could rescue”.
